# Earlier results as cited in patent US20120164210A1, “PHOTODYNAMIC THERAPEUTIC AGENT HAVING CELL-SPECIFIC ACTIVE ACCUMULATION PROPERTIES” (The University of Tokyo, priority 2008, published 2012).
# Tests used:
# [1] = tested on: tumor tissue; details: in vivo
# [2] = after administration, light shielding required
substance,measurement,setting,value
Photofrin,incorporation into tumor tissue relative to normal tissue,[1],about 4 times
same,sunlight hypersensitivity as a complication,[2],cause sunlight hypersensitivity
